Patent US7214395B2, “Pharmaceutical and cosmetic composition against skin aging” (Indena S.p.A., priority 2001, dated 2007)

Test system: fibroblasts
Test: collagen metabolism / amino acid up-take by fibroblasts
Assay type: cell-based
Text: […]. An improved synthesis of collagen means a faster substitution of the degraded old fibers of collagen with the new ones.

SMILES | activity on collagen metabolism | capability of the fibroblasts to up-take amino acids such as L-Proline and L-Hydroxyproline
C[C@H]1[C@H](C)CC[C@]2(C(=O)O)CC[C@]3(C)C(=CC[C@@H]4[C@@]5(C)C[C@@H](O)[C@H](O)[C@@](C)(CO)[C@@H]5CC[C@]43C)[C@H]12 [asiatic acid] | strong activity | improve
C[C@H]1[C@H](C)CC[C@]2(C(=O)O)CC[C@]3(C)C(=CC[C@@H]4[C@@]5(C)C[C@@H](O)[C@H](O)[C@@](C)(CO)[C@@H]5[C@H](O)C[C@]43C)[C@H]12 [madecassic acid] | strong activity | improve
